Test results: patent US8383637B2, “2-amino-quinazoline derivatives useful as inhibitors of β-secretase (BACE)” (Jansssen Pharmaceutica N.V., priority 2004, dated 2013)

The molecules below were run against T1, β-secretase(BACE) (Homo sapiens, UniProt P56817) (assay: BACE Assay-1 (MCA-substrate, IC50)). Details: procedure of Example 158; read-out: IC50 μM (158).
T1 construct: purchased Panvera
Type: biochemical
Protocol: The following standards are reagents were used in this assay: Sodium Citrate trisodium salt dihydrate (Sigma), Citric Acid monohydrate (Merck), PEG8000 (Sigma), MCA-substrate (Bachem), β-secretase (BACE) (Panvera), 96-well plate zwart (Costar (Elscolab)), StatVal (Bachem).
The following standard assay buffer solution was prepared and used in this assay: 0.05 M, pH 5.0 mixture of sodium citrate trisodium salt dihydrate (9.56 g), citric acid monohydrate (3.68 g) and PEG8000 (0.50 g).
The MCA-substrate stock solution was prepared by mixing 10 mg MCA-substrate with 5 mL DMSO for a final solution concentration of 2.0 mg/mL. The substrate work solution was prepared by mixing 0.1 mL substrate in 1.90 mL assay buffer for a final concentration of 0.05 mM. The β-secretase (BACE) work solution was prepared by mixing 8 μL BACE in 2 mL assay buffer for a final concentration of 10 μg/mL.
The screen procedure for this assay was as follows. 60 μL of assay buffer was pippeted into each well of a 96-well plate. To each well was then pipetted 1 μL of test compound at the selected concentration. To each well was then added 20 μL of the β-secretase work solution and 20 μL of the MCA-substrate stock solution.
The procedure for the blank was as follows. 80 μL of assay buffer was pipetted into each well to be used as a blank control. To each well was then added 1 μL of DMSO and 20 μL of MCA-substrate solution in each well.
The procedure for the positive control was as follows. 60 μL of assay buffer was pipetted into each well to be used as a positive control. To each well was then added 1 μL of DMSO, 20 μL of BACE work solution and 20 μL of MCA-substrate stock solution.
For test compounds, measured at multiple concentrations, the measured T0 and T60 values were used to calculate an IC50 value using Graphpad Software (or PIR).

T1 sequence (P56817 46-501): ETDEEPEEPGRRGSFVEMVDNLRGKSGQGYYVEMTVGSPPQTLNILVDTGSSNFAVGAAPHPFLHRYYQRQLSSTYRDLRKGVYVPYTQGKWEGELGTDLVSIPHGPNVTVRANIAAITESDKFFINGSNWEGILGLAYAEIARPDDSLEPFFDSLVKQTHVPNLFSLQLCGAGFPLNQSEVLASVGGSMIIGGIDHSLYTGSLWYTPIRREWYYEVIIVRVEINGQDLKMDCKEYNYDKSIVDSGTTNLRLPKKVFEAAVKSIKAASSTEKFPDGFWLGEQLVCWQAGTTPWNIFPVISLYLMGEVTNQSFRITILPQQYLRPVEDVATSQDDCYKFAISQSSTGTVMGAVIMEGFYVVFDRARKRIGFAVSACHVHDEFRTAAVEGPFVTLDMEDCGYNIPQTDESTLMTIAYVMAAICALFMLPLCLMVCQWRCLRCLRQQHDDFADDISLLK

SMILES | IC50
CN(C(=O)CCN1Cc2cc(C(O)c3ccccc3)ccc2N=C1N)C1CCCCC1 (stereo not shown) [Compound 32, 3-[2-Amino-6-(hydroxy-phenyl-methyl)-4H-quinazolin-3-yl]-N-cyclohexyl-N-methyl-propionamide] | 14 µM
CCCN1Cc2cc(Oc3cccc(NS(=O)(=O)c4ccc(OC)c(OC)c4)c3)ccc2N=C1N [Compound 249] | 5.2 µM
CCCN1Cc2cc(Oc3cccc(NS(=O)(=O)c4c(C)noc4C)c3)ccc2N=C1N [Compound 242] | > 10 µM
CN(C(=O)CCN1Cc2cc(C(=O)c3ccccc3)ccc2N=C1N)C12CC3CC(CC(C3)C1)C2 [Compound 41] | 5.1 µM
CCCN1Cc2cc(Oc3cccc(NS(=O)(=O)c4ccc5ccccc5c4)c3)ccc2N=C1N [Compound 244] | 2.1 µM
CN(Cc1ccccc1)C(=O)CCCCN1Cc2cc(C(=O)c3ccccc3)ccc2N=C1N [Compound 47] | 4.2 µM
CCCN1Cc2cc(Oc3cccc(NS(=O)(=O)c4cccc(C#N)c4)c3)ccc2N=C1N [Compound 270] | 2.37 µM
CCOC(=O)N1CCC(N2Cc3cc(Oc4cccc(NS(=O)(=O)c5c(C)cc(C)cc5C)c4)ccc3N=C2N)CC1 [Compound 362] | 0.53 µM
CCCN1Cc2cc(Oc3cccc(NS(=O)(=O)c4cc(C(=O)O)ccc4OC)c3)ccc2N=C1N [Compound 279] | > 10 µM
CCCN1Cc2cc(Oc3cccc(NS(=O)(=O)c4cccc(Br)c4)c3)ccc2N=C1N [Compound 282] | > 10 µM
CC(C)(C)OC(=O)NCCN1Cc2cc(Oc3cccc(NS(=O)(=O)c4ccccc4)c3)ccc2N=C1N [Compound 394] | 0.87 µM
NC1=Nc2ccc(C(=O)c3ccccc3)cc2CN1CCCCC(=O)NC1CCCCC1 [Compound 31] | 2.3 µM
COCCN1Cc2cc(C(=O)c3ccccc3)ccc2N=C1N [Compound 18] | 91 µM
CCCN1Cc2cc(-c3ccccc3CCNS(=O)(=O)c3ccccc3)ccc2N=C1N [Compound 385, N-{2-[2-(2-Amino-3-propyl-3,4-dihydro-quinazolin-6-yl)-phenyl]-ethyl}-benzenesulfonamide] | 0.28 µM
CN(C(=O)CCN1Cc2cc(Cc3ccccc3)ccc2N=C1N)C1CCCCC1 [Compound 36, 3-(2-Amino-6-benzyl-4H-quinazolin-3-yl)-N-cyclohexyl-N-methyl-propionamide] | 2.3 µM
CCN(C(=O)CCN1Cc2cc(C(=O)c3ccccc3)ccc2N=C1N)C1CCCCC1 [Compound 3] | 4 µM
CCCN1Cc2cc(Oc3cccc(NS(=O)(=O)c4cc(OC)ccc4OC)c3)ccc2N=C1N [Compound 248] | 6.9 µM
CN(C(=O)CCCCN1Cc2cc(Oc3cccc(NCC4CCCCC4)c3)ccc2N=C1N)C1CCCCC1 [Compound 96] | 0.78 µM
CCCN1Cc2cc(Oc3cccc(NS(=O)(=O)c4cccs4)c3)ccc2N=C1N [Compound 241] | 0.49 µM
CCCN1Cc2cc(Oc3cccc(NCc4c(OC)cccc4OC)c3)ccc2N=C1N [Compound 501] | 3.4 µM
NC1=Nc2ccc(Oc3cccc(NCC4CCCCC4)c3)cc2CN1CCCCO [Compound 95] | 0.31 µM
NC1=Nc2ccc(Oc3cccc(NC(=O)OCc4ccccc4)c3)cc2CN1CCCCC(=O)N(C1CCCCC1)C1CCCCC1 [Compound 75] | 0.66 µM
CN(C(=O)CCN1Cc2cc(C(=O)c3ccc(F)cc3)ccc2N=C1N)C1CCCCCC1 [Compound 5] | 5.1 µM
CCCN1Cc2cc(Oc3cccc(NS(=O)(=O)c4cc(S(=O)(=O)c5ccccc5)cs4)c3)ccc2N=C1N [Compound 285] | > 10 µM
CN(C(=O)CCN1Cc2cc(C(=O)c3ccccc3)ccc2N=C1N)C1CCCc2ccccc21 (stereo not shown) [Compound 45] | 2.7 µM
CCCN1Cc2cc(Oc3cccc(NS(=O)(=O)c4ccccc4C(F)(F)F)c3)ccc2N=C1N [Compound 277] | 0.7 µM
CN(C(=O)CCCCN1Cc2cc(C(=O)c3ccccc3)ccc2N=C1N)C1CCCc2ccccc21 (stereo not shown) [Compound 54] | 2.3 µM
CCOC(=O)N1CCC(N2Cc3cc(Oc4cccc(NS(=O)(=O)c5ccccc5)c4)ccc3N=C2N)CC1 [Compound 376] | 0.17 µM
